Assays:
5-HT1D receptors = molecular target: T1, 5-HT1D receptors (Homo sapiens, UniProt P28221); experiment: 5-HT1D receptor binding ([3H]-5-HT, CHO cell homogenate); conditions: CHO cells expressing 5-HT1D receptors; [3H]-5-HT (4nM); pH 7.7, 37° C., 45 minutes; read-out: pKi values at 5-HT1D (converted)
T1 construct: expressed in transfected cells; host or cells: CHO
Procedure: (§1) 5-HT1A, 5-HT1B and 5-HT1D Receptor Binding
(§2) HEK 293 cells expressing 5-HT1A receptors (4×10^7 /ml) were homogenised in Tris buffer and stored in 1 ml aliquots. CHO cells expressing 5-HT1B receptors (4×10^7 cells/ml) were homogenised in Tris buffer and stored in 1.5 ml aliquots. CHO cells expressing 5-HT1D receptors (0.563×10^8 /ml) were homogenised in Tris buffer and stored in 1 ml aliquots.
(§3) 0.4 ml of a cell suspension was incubated with [^3 H]-5-HT (4nM) for 5-HT1B/1D receptors and [^3 H]-8-OH DPAT (1nM) for 5-HT1A receptors in Tris Mg HCl buffer (pH 7.7) and test drug, at 37° C. for 45 minutes. Each test drug was tested at 10 concentrations (0.01 mM to 0.3 nM final concentration), with non-specific binding defined using 0.01 mM 5-HT. The total assay volume was 0.5 ml. Incubation was stopped by rapid filtration using a Packard Filtermate (filters pre-soaked in 0.3% polyethylenimine) and radioactivity measured by Topcount scintillation counting. pKi values were calculated from the IC50 generated by an iterative least squares curve fitting programme.

5-HT1A receptors = molecular target: T2, 5-HT1A receptors (Homo sapiens, UniProt P08908); experiment: 5-HT1A receptor binding ([3H]-8-OH DPAT, HEK 293 cell homogenate); conditions: HEK 293 cells expressing 5-HT1A receptors; [3H]-8-OH DPAT (1nM); pH 7.7, 37° C., 45 minutes; read-out: pKi values at 5-HT1A (converted)
T2 construct: expressed in transfected cells; host or cells: HEK 293
T2 sequence (P08908 1-422): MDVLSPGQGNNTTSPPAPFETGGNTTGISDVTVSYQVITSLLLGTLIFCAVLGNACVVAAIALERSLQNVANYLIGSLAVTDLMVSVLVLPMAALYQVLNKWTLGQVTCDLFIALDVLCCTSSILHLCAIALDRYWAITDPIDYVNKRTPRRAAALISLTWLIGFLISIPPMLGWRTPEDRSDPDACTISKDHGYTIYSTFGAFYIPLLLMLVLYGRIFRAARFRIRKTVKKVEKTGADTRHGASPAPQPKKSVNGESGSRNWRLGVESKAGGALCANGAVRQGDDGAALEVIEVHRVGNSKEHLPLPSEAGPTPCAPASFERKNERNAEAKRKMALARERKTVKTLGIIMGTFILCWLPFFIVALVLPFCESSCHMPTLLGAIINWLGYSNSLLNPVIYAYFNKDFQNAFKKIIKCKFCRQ
Procedure: as §1, §2, §3

5-HT1B receptors = molecular target: T3, 5-HT1B receptors (Homo sapiens, UniProt P28222); experiment: 5-HT1B receptor binding ([3H]-5-HT, CHO cell homogenate); conditions: CHO cells expressing 5-HT1B receptors; [3H]-5-HT (4nM); pH 7.7, 37° C., 45 minutes; read-out: pKi values at 5-HT1B (converted)
T3 construct: expressed in transfected cells; host or cells: CHO
Procedure: as §1, §2, §3

T3 sequence (P28222 whole entry): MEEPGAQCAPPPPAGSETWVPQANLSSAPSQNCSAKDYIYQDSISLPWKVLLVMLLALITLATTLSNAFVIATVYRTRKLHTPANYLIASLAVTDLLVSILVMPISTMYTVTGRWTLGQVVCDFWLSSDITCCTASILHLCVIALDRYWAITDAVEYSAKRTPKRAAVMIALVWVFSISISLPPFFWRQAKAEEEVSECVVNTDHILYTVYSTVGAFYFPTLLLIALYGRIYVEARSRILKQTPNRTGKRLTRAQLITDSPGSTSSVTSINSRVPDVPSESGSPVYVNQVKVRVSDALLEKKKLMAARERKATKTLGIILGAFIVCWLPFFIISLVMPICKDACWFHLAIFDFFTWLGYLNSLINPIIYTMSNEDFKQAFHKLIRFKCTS
T1 sequence (P28221 whole entry): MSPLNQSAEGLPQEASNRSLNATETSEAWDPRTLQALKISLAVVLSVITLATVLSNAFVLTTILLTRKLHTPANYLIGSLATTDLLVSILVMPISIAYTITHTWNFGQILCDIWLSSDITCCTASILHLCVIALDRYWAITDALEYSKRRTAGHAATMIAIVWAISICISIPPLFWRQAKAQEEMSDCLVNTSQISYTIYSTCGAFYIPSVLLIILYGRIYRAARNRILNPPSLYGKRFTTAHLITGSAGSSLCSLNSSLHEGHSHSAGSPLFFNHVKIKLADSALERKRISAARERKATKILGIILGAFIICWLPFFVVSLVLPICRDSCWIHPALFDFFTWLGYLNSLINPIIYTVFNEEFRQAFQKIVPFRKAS

Row | SMILES | Ki (5-HT1D receptors) | Ki (5-HT1A receptors) | Ki (5-HT1B receptors)
1 | COc1ccc(NC(=O)Nc2cccc3c(-c4ccccc4)cccc23)cc1N1CCN(C)CC1 [Example 33, N-[4-Methoxy-3-(4-methylpiperazin-1-yl)phenyl]-N'-[5-phenylnaphth-1-yl]urea] | < 10 nM | < 10 nM | < 10 nM
2 | CN1CCN(c2cc(NC(=O)Cc3ccc(-c4ccncc4)c4ccccc34)ccc2Br)CC1 [Example 38, N-[4-Bromo-3-(4-methylpiperazin-1-yl)phenyl]-4-(pyridin-4-yl)naphth-1-ylacetamide] | < 10 nM | < 10 nM | < 10 nM
3 | CN1CCN(c2cc(NC(=O)Nc3ccc(-c4ccncc4)c4ccccc34)ccc2Cl)CC1 [Example 11, N-[4-Chloro-3-(4-methylpiperazin-1-yl)phenyl]-N'-[4-(pyridin-4-yl)naphth-1-yl]urea] | < 10 nM | < 10 nM | < 10 nM
4 | COc1ccc(NC(=O)Nc2cccc3c(-c4cccc(C(C)=O)c4)cccc23)cc1N1CCN(C)CC1 [Example 40, N-[5-(3-Acetylphenyl)naphth-1-yl]-N'-[4-methoxy-3-(4-methylpiperazin-1-yl)phenyl]urea] | < 10 nM | < 10 nM | < 10 nM

Now from value to molecule:

Row | Ki (5-HT1D receptors) | Ki (5-HT1A receptors) | Ki (5-HT1B receptors) | SMILES
5 | < 10 nM | < 10 nM | < 10 nM | COc1ccc(NC(=O)Cc2ccc(-c3cccnc3)c3ccccc23)cc1N1CCN(C)CC1 [Example 28, N-[4-Methoxy-3-(4-methylpiperazin-1-yl)phenyl]-4-(pyridin-3-yl)naphth-1-ylacetamide]
6 | < 10 nM | < 10 nM | < 10 nM | COc1ccc(NC(=O)Cc2ccc(-c3ccncc3)c3ccccc23)cc1N1CCN(C)CC1 [Example 10, N-[4-Methoxy-3-(4-methylpiperazin-1-yl)phenyl]-4-(pyridin-4-yl)naphth-1-ylacetamide]

From patent US6159979A, “Bicyclic aryl or a bicyclic heterocyclic ring containing compounds having a combined 5HT1A, 5HT1B and 5HT1D receptor antagonistic activity” (SmithKline Beecham p.l.c., priority 1997, dated 2000)
